In ChEMBL document CHEMBL5393453, “Compositions and methods of using the same for treatment of neurodegenerative and mitochondrial disease” (2021):
Activity calls are given as the source filed them. The rule behind the calls is not given here.

What was measured:
[1] = system: Primary hippocampal neuron; assay: Protection against PFFs induced alpha-synuclein fibril formation in C57BL/6 mouse derived primary hippocampal neurons assessed as reduction in phosphorylated S129 alpha-synuclein monomer level at 0.1 to 25 uM measured after 6 days; format: functional, cell-based; conditions: dose 0.1-25 µM, time 6.0 day
[2] = system: Primary hippocampal neuron; assay: Protection against PFFs induced alpha-synuclein fibril formation in C57BL/6 mouse derived primary hippocampal neurons assessed as reduction in phosphorylated S129 alpha-synuclein (250-12) level at 0.1 to 25 uM measured after 6 days; format: functional, cell-based; conditions: dose 0.1-25 µM, time 6.0 day
[3] = Cytotoxicity against human HeLa cells expressing YFP parkin assessed as highest safety dose by DAPI staining analysis; format: toxicity, cell-based; conditions: read-out: Activity
[4] = system: Primary hippocampal neuron; assay: Protection against PFFs induced alpha-synuclein fibril formation in C57BL/6 mouse derived primary hippocampal neurons assessed as reduction in phosphorylated S129 alpha-synuclein level at 0.1 to 25 uM measured after 6 days; format: functional, cell-based; conditions: dose 0.1-25 µM, time 6.0 day
[5] = Cytotoxicity against human HeLa cells expressing YFP parkin treated with FCCP/ oligomycin assessed as highest safety dose by DAPI staining analysis; format: toxicity, cell-based; conditions: read-out: Activity
[6] = system: HeLa; assay: Induction of mitophagy in human HeLa Mito-Keima/YFP-Parkin cells treated with FCCP/oligomycin measured by FACS analysis relative to DMSO; format: functional
[7] = Therapy index in human HeLa Mito-Keima/YFP-Parkin cells treated with FCCP/oligomycin assessed as mitophagy safety margin by DAPI staining analysis; format: toxicity, cell-based; conditions: read-out: TI
[8] = system: HeLa; assay: Induction of mitophagy in human HeLa Mito-Keima/YFP-Parkin cells treated with FCCP/oligomycin measured by FACS analysis; format: functional, cell-based
[9] = AUClast in C57BL/6 mouse at 10 mg/kg, po administered as single dose by mass spectrometry; format: ADME, organism-based; parameters: dose 10 mg/kg, route po; conditions: in vivo
[10] = system: Primary hippocampal neuron; assay: Protection against PFFs induced alpha-synuclein fibril formation in C57BL/6 mouse derived primary hippocampal neurons assessed as reduction in phosphorylated S129 alpha-synuclein level at 1.56 to 12.5 uM measured after 6 days; format: functional, cell-based; conditions: dose 1.56-12.5 µM, time 6.0 day
[11] = Cmax in C57BL/6 mouse at 10 mg/kg, po administered as single dose by mass spectrometry; format: ADME, organism-based; parameters: dose 10 mg/kg, route po; conditions: in vivo
[12] = system: HeLa; assay: Induction of mitophagy in human HeLa YFP-Parkin cells treated with FCCP/oligomycin assessed as cells with parkin recruited to mitochondria at 60 mins by FACS analysis; format: functional, cell-based; conditions: 1 h
[13] = system: HeLa; assay: Induction of mitophagy in human HeLa Mito-Keima cells treated with FCCP/oligomycin measured by FACS analysis; format: functional, cell-based
[14] = AUClast in C57BL/6 mouse at 50 mg/kg, po administered as single dose by mass spectrometry; format: ADME, organism-based; parameters: dose 50 mg/kg, route po; conditions: in vivo
[15] = Cmax in C57BL/6 mouse at 50 mg/kg, po administered as single dose by mass spectrometry; format: ADME, organism-based; parameters: dose 50 mg/kg, route po; conditions: in vivo

Compound	MNTC [3] [µM]	MNTC [5] [µM]	other results
C[C@H]1CN([C@H]2CCc3ccccc3[C@@H]2Nc2ncnc3[nH]c(C(F)(F)F)cc23)CCO1 (single isomer, unassigned)	25	9.1	Activity [1]: Active; Activity [2]: Active; Activity [4]: Active
Fc1ccc2c(c1)CC[C@H](N1CCOCC1)[C@H]2Nc1ncnc2[nH]c(C3CC3)cc12 (single isomer, unassigned)	25	2.8	fold change (FC) [6]: 5.24
FC(F)(F)c1cc2c(N[C@H]3c4ccccc4CC[C@@H]3N3CC4(CCOCC4)C3)ncnc2[nH]1 (single isomer, unassigned)			fold change (FC) [6]: 3.95
COC1CN([C@H]2CCc3ccccc3[C@@H]2Nc2ncnc3[nH]c(C(F)(F)F)cc23)C1	8.3	8.3	Activity [1]: Active; Activity [2]: Active; Activity [4]: Active
FC(F)(F)c1cc2c(N[C@@H]3c4ccccc4CC[C@@H]3N3CCOCC3)ncnc2[nH]1	16.7		selectivity ratio [7]: < 10
COC1CN([C@@H]2CCc3ccccc3[C@H]2Nc2ncnc3[nH]c(C(F)(F)F)cc23)C1	25		EC50 [8]: 28800 nM
FC(F)(F)c1cc2c(NC3CCCc4ccccc43)ncnc2[nH]1 (single isomer, unassigned)			AUC(0-t) [9]: 1.79 µM·h; Activity [10]: Active; Cmax [11]: 0.49 µM; EC50 [12]: 1740 nM; fold change (FC) [6]: 4.43; EC50 [13]: 371 nM; AUC(0-t) [14]: 30.5 µM·h; Cmax [15]: 6.98 µM
COC[C@H]1CCN([C@H]2COc3ccccc3[C@@H]2Nc2ncnc3[nH]c(C(F)(F)F)cc23)C1 (single isomer, unassigned)	25	4.5	
Fc1ccc2c(c1)CC[C@@H](N1CCOCC1)[C@@H]2Nc1ncnc2[nH]c(C(F)(F)F)cc12 (single isomer, unassigned)	25	25	fold change (FC) [6]: 4.67
FC(F)(F)c1cc2c(N[C@@H]3c4ccccc4OC[C@H]3C3CCOCC3)ncnc2[nH]1 (single isomer, unassigned)	25	4.7	
[2H]C([2H])([2H])OC1CN([C@H]2COc3ccccc3[C@@H]2Nc2ncnc3[nH]c(C(F)(F)F)cc23)C1	25	19.8	
C[C@@H]1CN([C@@H]2COc3ccccc3[C@H]2Nc2ncnc3[nH]c(C4CC4)cc23)C[C@H](C)O1	25	1.2	
COC1CN([C@H]2COc3ccccc3[C@@H]2Nc2ncnc3[nH]c(C(F)(F)F)cc23)C1	8.3	8.3	
c1ccc2c(c1)CC[C@H](N1C[C@@H]3COC[C@H]3C1)[C@H]2Nc1ncnc2[nH]c(C3CC3)cc12	25	3	
CO[C@@H]1CCN([C@H]2COc3ccccc3[C@@H]2Nc2ncnc3[nH]c(C(F)(F)F)cc23)C1	25	3.4	
FC(F)(F)c1cc2c(NC3c4ccccc4OCC3N3C[C@H]4COC[C@@H]4C3)ncnc2[nH]1 (some centres not stated)	25	25	
COC[C@@H]1CCN([C@H]2COc3ccccc3[C@@H]2Nc2ncnc3[nH]c(C(F)(F)F)cc23)C1 (single isomer, unassigned)	25	3.3	
c1ccc2c(c1)CC[C@@H](N1CCOCC1)[C@@H]2Nc1ncnc2[nH]c(C3CC3)cc12 (single isomer, unassigned)	25	25	
c1ccc2c(c1)CC[C@H](N1C[C@H]3COC[C@H]3C1)[C@H]2Nc1ncnc2[nH]c(C3CC3)cc12	25	0.9	
COC1CN([C@H]2COc3ccccc3[C@@H]2Nc2ncnc3[nH]c(C4CC4)cc23)C1	25	25	
C[C@@H]1CN([C@H]2CCc3ccccc3[C@@H]2Nc2ncnc3[nH]c(C(F)(F)F)cc23)CCO1 (single isomer, unassigned)	25	3.7	

Compound	MNTC [3] [µM]	MNTC [5] [µM]	other results
C[C@@H]1CN([C@H]2COc3cc(F)ccc3[C@@H]2Nc2ncnc3[nH]c(C(F)(F)F)cc23)C[C@H](C)O1 (single isomer, unassigned)	25	9.9	
C[C@@H]1CN([C@H]2COc3ccccc3[C@@H]2Nc2ncnc3[nH]c(C4CC4)cc23)C[C@H](C)O1 (single isomer, unassigned)	25	2.3	
FC(F)(F)c1cc2c(N[C@@H]3c4ccccc4OC[C@@H]3C3CCCOC3)ncnc2[nH]1 (single isomer, unassigned)	25	25	
C[C@H]1CN([C@H]2CCc3ccccc3[C@@H]2Nc2ncnc3[nH]c(C4CC4)cc23)CCO1 (single isomer, unassigned)	25	3.5	
Fc1ccc2c(c1)CC[C@H](N1CCOCC1)[C@H]2Nc1ncnc2[nH]c(C(F)(F)F)cc12 (single isomer, unassigned)	25	8.3	fold change (FC) [6]: 5.11
FC(F)(F)c1cc2c(N[C@H]3c4ccccc4OC[C@@H]3C3CCOCC3)ncnc2[nH]1 (single isomer, unassigned)	25	25	
c1ccc2c(c1)OC[C@H](C1CCOCC1)[C@H]2Nc1ncnc2[nH]c(C3CC3)cc12 (single isomer, unassigned)	25	21.5	Activity [1]: Active; Activity [2]: Active; Activity [4]: Active
FC(F)(F)c1cc2c(N[C@@H]3c4ccccc4CC[C@H]3N3CCOCC3)ncnc2[nH]1 (racemic)	13.9		fold change (FC) [6]: 9.53
FC(F)(F)c1cc2c(NC3c4ccccc4OCC3N3C[C@@H]4COC[C@H]4C3)ncnc2[nH]1 (some centres not stated)	25	25	
Fc1ccc2c(c1)CC[C@@H](N1C[C@H]3COC[C@H]3C1)[C@@H]2Nc1ncnc2[nH]c(C(F)(F)F)cc12 (single isomer, unassigned)	8.3	8.3	
C[C@H]1CN([C@@H]2COc3ccccc3[C@H]2Nc2ncnc3[nH]c(C(F)(F)F)cc23)CCO1	19.4	19.4	
FC(F)(F)c1cc2c(N[C@H]3c4ccccc4OC[C@H]3C3CCCOC3)ncnc2[nH]1 (mixture of isomers)	25	25	
FC(F)(F)c1cc2c(N[C@@H]3c4ccccc4CC[C@H]3N3CCOCC3)ncnc2[nH]1 (single isomer, unassigned)			fold change (FC) [6]: 7.78
Fc1ccc2c(c1)CC[C@H](N1C[C@H]3COC[C@@H]3C1)[C@H]2Nc1ncnc2[nH]c(C(F)(F)F)cc12	25	9.1	
FC(F)(F)c1cc2c(N[C@H]3c4ccccc4CC[C@@H]3N3C[C@H]4COC[C@H]4C3)ncnc2[nH]1 (single isomer, unassigned)	25	2.8	fold change (FC) [6]: 5.44
COC1CN([C@@H]2COc3ccccc3[C@H]2Nc2ncnc3[nH]c(C(F)(F)F)cc23)C1	25	21.4	Activity [1]: Active; Activity [2]: Active; Activity [4]: Active
c1ccc2c(c1)OC[C@@H](C1CCOCC1)[C@@H]2Nc1ncnc2[nH]c(C3CC3)cc12	25	3.2	
FC(F)(F)c1cc2c(N[C@H]3c4ccccc4CC[C@@H]3N3CC4(COC4)C3)ncnc2[nH]1			EC50 [8]: 300 nM
Fc1ccc2c(c1)CC[C@H](N1C[C@@H]3COC[C@H]3C1)[C@H]2Nc1ncnc2[nH]c(C3CC3)cc12	25	25	
FC(F)(F)c1cc2c(N[C@H]3c4ccccc4CC[C@@H]3N3CCOCC3)ncnc2[nH]1 (single isomer, unassigned)			Activity [10]: Active; fold change (FC) [6]: 9.78; selectivity ratio [7]: > 30
